Measured values reported in paper PMC11891579, “Fluorescent PyrAte-(S)-citalopram conjugates enable imaging of the serotonin transporter in living tissue” (Chemical Science, 2025).

Target: T1, SERT (Homo sapiens, UniProt P31645)
T1 construct: expressed in transfected cells
Test: whole-cell patch clamp of 5-HT-mediated currents in SERT-expressing HEK293 cells
Format: cell-based
Protocol: ten minutes (for [3H]MPP+), by exchange of the substrate-containing buffer with 0.2 mL ice-cold KHB.
The KHB was aspirated immediately. Cells were lysed and prepared for [3H] content analysis by adding 0.2 mL Ultima Gold™ XR liquid scintillation cocktail. Measurements were performed in a 1450 MicroBeta microplate liquid scintillation counter. Non-specific uptake was determined in the presence of 30 µM paroxetine (for YhSERT), 50 µM GBR12909 (for YhDAT and hNET), or 100 µM decynium-22 (for YhOCT3).
For radioligand binding assays, membranes were first prepared from HEK293 cells stably expressing YhSERT. Cells were harvested from dishes using a plastic scraper and ice-cold PBS. Cells were recovered as a pellet after centrifugation (400× g) for 10 min at 4°C, and then re-suspended in HME buffer. […] Protein concentration was determined using Coomassie Brilliant Blue kit (BioRad Laboratories, California, USA). […] The amount of radioactivity in the filters was measured using a Tri-Carb 2800TR liquid scintillation analyzer (PerkinElmer). The Ki was calculated from the measured IC50 using the Cheng-Prusoff equation.
Prior to imaging, cell culture medium was replaced with pre-warmed KHB. […] PyrAtes were excited using a 405 nm laser, and its fluorescent signals collected using 525/50 nm emission filters; mCherry was excited using a 561 nm laser, and fluorescence was collected using 595/50 nm emission filters. […]

T1 sequence (P31645 whole entry): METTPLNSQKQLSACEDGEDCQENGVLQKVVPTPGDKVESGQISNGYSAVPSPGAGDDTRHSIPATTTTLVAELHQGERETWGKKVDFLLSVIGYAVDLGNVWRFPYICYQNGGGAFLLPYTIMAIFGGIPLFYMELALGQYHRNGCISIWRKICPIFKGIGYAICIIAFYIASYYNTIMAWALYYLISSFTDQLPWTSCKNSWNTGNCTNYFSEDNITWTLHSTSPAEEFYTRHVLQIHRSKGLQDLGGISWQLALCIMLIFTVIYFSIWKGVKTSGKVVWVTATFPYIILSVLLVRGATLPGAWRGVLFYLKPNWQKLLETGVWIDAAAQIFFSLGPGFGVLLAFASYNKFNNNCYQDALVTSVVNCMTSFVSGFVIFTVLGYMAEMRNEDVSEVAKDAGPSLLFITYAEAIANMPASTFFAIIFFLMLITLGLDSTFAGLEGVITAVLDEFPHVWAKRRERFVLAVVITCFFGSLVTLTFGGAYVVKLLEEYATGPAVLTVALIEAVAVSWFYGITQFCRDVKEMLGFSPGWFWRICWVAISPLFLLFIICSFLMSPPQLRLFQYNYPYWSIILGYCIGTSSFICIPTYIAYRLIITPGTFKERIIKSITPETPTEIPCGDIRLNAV

ratio of 5-HT-mediated currents before and after application (current reduced to) (1 μM compound, 10 µM 5HT, N = 6): 47% | inhibition at 1 µM (HEK293, read-out: inhibition of 5-HT-mediated currents, 1 μM concentration): ~50%
SMILES: CCN(CC)c1ccc(-c2cc[n+]3c(-c4ccccc4)c(N4CCCC4)n(CCCCCCC(=O)NCc4ccc5c(c4)CO[C@@]5(CCCN(C)C)c4ccc(F)cc4)c3c2)cc1 [PYR-C6-CIT, PyrAte-C6-(S)-citalopram]
